Measurements reported in ChEMBL document CHEMBL1201862, “PubChem BioAssay data set” (2004).
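Each compound was tested at five concentrations against cells in 96-well plates for 48 hours. GI50 = concentration required for 50% inhibition of growth.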 The source made the active and inactive calls. Cut-off read from the data, not from the text of the source: active = GI50 up to about 1.1 µM and inactive = higher.

Tests used:
Test in all cases: DTP human tumour cell line panel, 48 h
SK-MEL-28 = test system: SK-MEL-28
LOX IMVI = test system: LOX IMVI
UACC-62 = test system: UACC-62
U-251 = test system: U-251
HCT-15 = test system: HCT-15
UACC-257 = test system: UACC-257
IGROV-1 = test system: IGROV-1
HT-29 = test system: HT-29
NCI-H23 = test system: NCI-H23
Malme-3M = test system: Malme-3M
HCC 2998 = test system: HCC 2998
HOP-92 = test system: HOP-92
A498 = test system: A498
MDA-N = test system: MDA-N
NCI-H226 = test system: NCI-H226
OVCAR-8 = test system: OVCAR-8
NCI-H460 = test system: NCI-H460
K562 = test system: K562
CCRF-CEM = test system: CCRF-CEM
A549 = test system: A549
SK-MEL-2 = test system: SK-MEL-2
OVCAR-5 = test system: OVCAR-5
COLO 205 = test system: COLO 205
RXF 393 = test system: RXF 393
RPMI-8226 = test system: RPMI-8226
MDA-MB-231 = test system: MDA-MB-231
NCI/ADR-RES = test system: NCI/ADR-RES
ACHN = test system: ACHN
SNB-75 = test system: SNB-75
SNB-19 = test system: SNB-19
T47D = test system: T47D
SF-539 = test system: SF-539
SF-268 = test system: SF-268
SK-MEL-5 = test system: SK-MEL-5
MDA-MB-435 = test system: MDA-MB-435
BT-549 = test system: BT-549
SW-620 = test system: SW-620
CAKI-1 = test system: CAKI-1
SN12C = test system: SN12C
MCF7 = test system: MCF7
M14 = test system: M14
SR = test system: SR
HL-60 = test system: HL-60
Hs-578T = test system: Hs-578T
PC-3 = test system: PC-3
HOP-62 = test system: HOP-62
SK-OV-3 = test system: SK-OV-3
786-0 = test system: 786-0
HCT-116 = test system: HCT-116
OVCAR-3 = test system: OVCAR-3
DU-145 = test system: DU-145
OVCAR-4 = test system: OVCAR-4
KM12 = test system: KM12
MOLT-4 = test system: MOLT-4
SF-295 = test system: SF-295
EKVX = test system: EKVX
NCI-H522 = test system: NCI-H522
UO-31 = test system: UO-31
TK-10 = test system: TK-10

Q: Which GI50 (SK-MEL-28) does the source give for `O=C(Nc1cccc2ccccc12)c1cc2ccccc2oc1=O` here?
A: > 100 µM (inactive)

Q: And the GI50 (LOX IMVI)?
A: > 100 µM (inactive)

Q: And the GI50 (UACC-62)?
A: > 100 µM (inactive)

Q: And the GI50 (U-251)?
A: 34 µM (inactive)

Q: What about the GI50 (HCT-15) of the same compound?
A: > 100 µM

Q: What about the GI50 (UACC-257) of the same compound?
A: > 100 µM (inactive)

Q: What about the GI50 (IGROV-1) of the same compound?
A: 18.5 µM (inactive)

Q: What about the GI50 (HT-29) of the same compound?
A: 28.1 µM (inactive)

Q: And the GI50 (NCI-H23)?
A: 36.7 µM (inactive)

Q: And the GI50 (Malme-3M)?
A: 12.5 µM (inactive)

Q: And the GI50 (HCC 2998)?
A: > 100 µM (inactive)

Q: What about the GI50 (HOP-92) of the same compound?
A: > 100 µM (inactive)

Q: What about the GI50 (A498) of the same compound?
A: 47.9 µM (inactive)

Q: What about the GI50 (MDA-N) of the same compound?
A: > 100 µM (inactive)

Q: What about the GI50 (NCI-H226) of the same compound?
A: 21.8 µM (inactive)

Q: And the GI50 (OVCAR-8)?
A: 39.4 µM (inactive)

Q: What about the GI50 (NCI-H460) of the same compound?
A: > 100 µM (inactive)

Q: What about the GI50 (K562) of the same compound?
A: > 100 µM (inactive)

Q: What about the GI50 (CCRF-CEM) of the same compound?
A: > 100 µM (inactive)

Q: What about the GI50 (A549) of the same compound?
A: > 100 µM (inactive)

Q: What about the GI50 (SK-MEL-2) of the same compound?
A: 40.6 µM (inactive)

Q: What about the GI50 (OVCAR-5) of the same compound?
A: 41.1 µM (inactive)

Q: What about the GI50 (COLO 205) of the same compound?
A: > 100 µM (inactive)

Q: What about the GI50 (RXF 393) of the same compound?
A: 22.6 µM (inactive)

Q: What about the GI50 (RPMI-8226) of the same compound?
A: > 100 µM (inactive)

Q: What about the GI50 (MDA-MB-231) of the same compound?
A: 23.6 µM (inactive)

Q: And the GI50 (NCI/ADR-RES)?
A: 60.3 µM (inactive)

Q: What about the GI50 (ACHN) of the same compound?
A: 24.3 µM (inactive)

Q: And the GI50 (SNB-75)?
A: 30.6 µM (inactive)

Q: And the GI50 (SNB-19)?
A: 22 µM (inactive)

Q: What about the GI50 (T47D) of the same compound?
A: > 100 µM (inactive)

Q: What about the GI50 (SF-539) of the same compound?
A: 14.6 µM (inactive)

Q: And the GI50 (SF-268)?
A: 23.3 µM (inactive)

Q: What about the GI50 (SK-MEL-5) of the same compound?
A: > 100 µM (inactive)

Q: What about the GI50 (MDA-MB-435) of the same compound?
A: > 100 µM (inactive)

Q: What about the GI50 (BT-549) of the same compound?
A: > 100 µM (inactive)

Q: What about the GI50 (SW-620) of the same compound?
A: > 100 µM (inactive)

Q: And the GI50 (CAKI-1)?
A: 48 µM (inactive)

Q: What about the GI50 (SN12C) of the same compound?
A: > 100 µM (inactive)

Q: And the GI50 (MCF7)?
A: > 100 µM (inactive)

Q: What about the GI50 (M14) of the same compound?
A: > 100 µM (inactive)

Q: What about the GI50 (SR) of the same compound?
A: > 100 µM (inactive)

Q: And the GI50 (HL-60)?
A: > 100 µM (inactive)

Q: And the GI50 (Hs-578T)?
A: 32.8 µM (inactive)

Q: What about the GI50 (PC-3) of the same compound?
A: > 100 µM (inactive)

Q: And the GI50 (HOP-62)?
A: 14.5 µM (inactive)

Q: What about the GI50 (SK-OV-3) of the same compound?
A: 30.2 µM (inactive)

Q: And the GI50 (786-0)?
A: 13.7 µM (inactive)

Q: And the GI50 (HCT-116)?
A: 36.8 µM (inactive)

Q: What about the GI50 (OVCAR-3) of the same compound?
A: 70.5 µM (inactive)

Q: What about the GI50 (DU-145) of the same compound?
A: > 100 µM (inactive)

Q: And the GI50 (OVCAR-4)?
A: 78 µM (inactive)

Q: And the GI50 (KM12)?
A: > 100 µM (inactive)

Q: And the GI50 (MOLT-4)?
A: > 100 µM (inactive)

Q: `C[C@]12CC[C@H]3[C@@H](CCC4=CC(=O)CC[C@@]43C)[C@@H]1CC[C@@H]2C(=O)Nc1ccc([N+](=O)[O-])c(C(F)(F)F)c1` was tested. Which GI50 (SK-MEL-28) did it give?
A: 20.7 µM (inactive)

Q: What about the GI50 (LOX IMVI) of the same compound?
A: 15.8 µM (inactive)

Q: And the GI50 (UACC-62)?
A: 15.3 µM (inactive)

Q: What about the GI50 (U-251) of the same compound?
A: 17.1 µM (inactive)

Q: And the GI50 (HCT-15)?
A: 12 µM

Q: And the GI50 (UACC-257)?
A: > 10 µM (inactive)

Q: And the GI50 (IGROV-1)?
A: 22.8 µM (inactive)

Q: And the GI50 (HT-29)?
A: 18.2 µM (inactive)

Q: And the GI50 (NCI-H23)?
A: > 10 µM (inactive)

Q: And the GI50 (SF-295)?
A: 17.1 µM (inactive)

Q: And the GI50 (Malme-3M)?
A: 15.6 µM (inactive)

Q: And the GI50 (HCC 2998)?
A: 12.9 µM (inactive)

Q: What about the GI50 (EKVX) of the same compound?
A: 13.4 µM (inactive)

Q: What about the GI50 (HOP-92) of the same compound?
A: 39.8 µM (inactive)

Q: What about the GI50 (A498) of the same compound?
A: 17.6 µM (inactive)

Q: And the GI50 (MDA-N)?
A: > 10 µM (inactive)

Q: What about the GI50 (NCI-H226) of the same compound?
A: 21.2 µM (inactive)

Q: And the GI50 (OVCAR-8)?
A: 26.4 µM (inactive)

Q: What about the GI50 (NCI-H460) of the same compound?
A: 17.3 µM (inactive)

Q: What about the GI50 (NCI-H522) of the same compound?
A: 17.2 µM (inactive)

Q: And the GI50 (K562)?
A: 26.6 µM (inactive)

Q: And the GI50 (CCRF-CEM)?
A: 24.7 µM (inactive)

Q: And the GI50 (A549)?
A: 17.9 µM (inactive)

Q: And the GI50 (SK-MEL-2)?
A: 17.5 µM (inactive)

Q: What about the GI50 (OVCAR-5) of the same compound?
A: > 10 µM (inactive)

Q: And the GI50 (COLO 205)?
A: 18.2 µM (inactive)

Q: What about the GI50 (RPMI-8226) of the same compound?
A: 56.1 µM (inactive)

Q: What about the GI50 (MDA-MB-231) of the same compound?
A: 17.1 µM (inactive)

Q: And the GI50 (NCI/ADR-RES)?
A: 13.3 µM (inactive)

Q: What about the GI50 (ACHN) of the same compound?
A: 18.7 µM (inactive)

Q: What about the GI50 (SNB-19) of the same compound?
A: 18.5 µM (inactive)

Q: And the GI50 (T47D)?
A: 15.6 µM (inactive)

Q: And the GI50 (SF-539)?
A: 18.7 µM (inactive)

Q: And the GI50 (SF-268)?
A: 21.4 µM (inactive)

Q: And the GI50 (SK-MEL-5)?
A: 14.3 µM (inactive)

Q: And the GI50 (MDA-MB-435)?
A: 18 µM (inactive)

Q: What about the GI50 (BT-549) of the same compound?
A: 19.4 µM (inactive)

Q: And the GI50 (SW-620)?
A: 20.9 µM (inactive)

Q: What about the GI50 (CAKI-1) of the same compound?
A: 18.7 µM (inactive)

Q: What about the GI50 (SN12C) of the same compound?
A: 23.4 µM (inactive)

Q: What about the GI50 (MCF7) of the same compound?
A: 16.3 µM (inactive)

Q: What about the GI50 (UO-31) of the same compound?
A: 16.6 µM (inactive)

Q: What about the GI50 (SR) of the same compound?
A: 23.7 µM (inactive)

Q: And the GI50 (HL-60)?
A: 39.4 µM (inactive)

Q: What about the GI50 (Hs-578T) of the same compound?
A: 18.2 µM (inactive)

Q: And the GI50 (PC-3)?
A: 19.6 µM (inactive)

Q: What about the GI50 (HOP-62) of the same compound?
A: 29 µM (inactive)

Q: And the GI50 (SK-OV-3)?
A: 12.7 µM (inactive)

Q: What about the GI50 (786-0) of the same compound?
A: 16.6 µM (inactive)

Q: And the GI50 (HCT-116)?
A: 17.5 µM (inactive)

Q: And the GI50 (OVCAR-3)?
A: 22.8 µM (inactive)

Q: What about the GI50 (DU-145) of the same compound?
A: 20.7 µM (inactive)

Q: And the GI50 (OVCAR-4)?
A: 15.3 µM (inactive)

Q: What about the GI50 (KM12) of the same compound?
A: 16 µM (inactive)

Q: And the GI50 (MOLT-4)?
A: 24.2 µM (inactive)

Q: What about the GI50 (TK-10) of the same compound?
A: 19 µM (inactive)
